Measurements: ChEMBL document CHEMBL5137061, “Design and Measurement of Drug Tissue Concentration Asymmetry and Tissue Exposure-Effect (Tissue PK-PD) Evaluation” (J Med Chem, 2022)

How the values were obtained:
[1] = Tmax in BALBnu/CrlCrlj mouse at 0.1 to 1 mg/kg, po measured for 1 to 24 hrs; assay type: ADME, organism-based; conditions: in vivo, dose lower 0.1 mg/kg, time lower 1 hrs, dose upper 1 mg/kg, time upper 24 hrs
[2] = Tmax in BALBnu/CrlCrlj mouse xenografted with human KM12 cell tumor at 0.06 to 0.6 mg/kg, po measured after 48 hrs; assay type: ADME, organism-based; conditions: in vivo, dose 0.06-0.6 mg/kg

Tmax [1]: 2 h
Tmax [2]: 7 h
Structure (SMILES): CS(=O)(=O)c1ccc(C(F)(F)F)cc1NC(=O)Nc1cnc(Oc2ccc(-c3cc(Cl)cnc3N)cc2)nc1 [ONO-7579]
